From patent publication US8614242B2, “1-(heterocyclic carbonyl)-2-substituted pyrrolidines” (Bayer Intellectual Property GmbH, priority 2010, dated 2013)

Legend:
Leptosphaeria nodorum = assay: In vivo preventive test on Leptosphaeria nodorum (wheat); conditions: evaluated 8 days after inoculation
Text: After the spray coating has been dried, the plants are sprayed with a spore suspension of Leptosphaeria nodorum.

[1] = system: Fusarium nivale (var. majus); assay: In vivo preventive test on Fusarium nivale (wheat); conditions: 500 ppm of active ingredient, evaluated 5 days after inoculation
Text: After the spray coating has been dried, the plants are slightly injured by using a sandblast and afterwards they are sprayed with a conidia suspension of Fusarium nivale (var. majus).

Puccinia triticina = assay: In vivo preventive test on Puccinia triticina (wheat); conditions: 500 ppm of active ingredient, evaluated 8 days after inoculation
Method: In Vivo Preventive Test on Puccinia Triticina (Wheat)
Solvent: 49 parts by weight of N,N-dimethylacetamide
Emulsifier: 1 part by weight of alkylaryl polyglycol ether
After the spray coating has been dried, the plants are sprayed with a spore suspension of Puccinia triticina.
The test is evaluated 8 days after the inoculation.

Venturia inaequalis = assay: In vivo preventive test on Venturia inaequalis (apple scab); conditions: 100 ppm of active ingredient, evaluated 10 days after inoculation
Method: After the spray coating has dried on, the plants are inoculated with an aqueous conidia suspension of the causal agent of apple scab (Venturia inaequalis) and then remain for 1 day in an incubation cabinet at approximately 20° C. and a relative atmospheric humidity of 100%.

Sphaerotheca fuliginea = assay: In vivo preventive test on Sphaerotheca fuliginea (cucumber); conditions: 500 ppm of active ingredient, evaluated 7 days after inoculation
Septoria tritici = assay: In vivo preventive test on Septoria tritici (wheat); conditions: 500 ppm of active ingredient, evaluated 21 days after inoculation
Text: After the spray coating has been dried, the plants are sprayed with a spore suspension of Septoria tritici.

[2] = system: Blumeria graminis f.sp. hordei; assay: In vivo preventive test on Blumeria graminis (barley); conditions: 500 ppm of active ingredient, evaluated 7 days after inoculation
Text: After the spray coating has been dried, the plants are dusted with spores of Blumeria graminis f.sp. hordei.

[3] = logP by HPLC on reversed-phase column (EEC Directive 79/831 Annex V.A8); format: physicochemical; conditions: for logP: HPLC on reversed-phase column (C 18), 40° C., 0.1% aqueous formic acid and acetonitrile, linear gradient 10% to 90% acetonitrile
Method: In table 1, the logP values were determined in accordance with EEC Directive 79/831 Annex V.A8 by HPLC (High Performance Liquid Chromatography) on a reversed-phase column (C 18), using the method described below: Temperature: 40° C.; Mobile phases: 0.1% aqueous formic acid and acetonitrile; linear gradient from 10% acetonitrile to 90% acetonitrile. Calibration was carried out using unbranched alkan-2-ones (comprising 3 to 16 carbon atoms) with known logP values (determination of the logP values by the retention times using linear interpolation between two successive alkanones). lambda-max-values were determined using UV-spectra from 200 nm to 400 nm and the peak values of the chromatographic signals.

Pyrenophora teres = assay: In vivo preventive test on Pyrenophora teres (barley); conditions: 500 ppm of active ingredient, evaluated 7-9 days after inoculation
Method: The plants remain for 48 hours in an incubation cabinet at 22° C. and a relative atmospheric humidity of 100%.

Alternaria solani = assay: In vivo preventive test on Alternaria solani (tomato); conditions: evaluated 7 days after inoculation
Method: The plants remain for one day in an incubation cabinet at approximately 22° C. and a relative atmospheric humidity of 100%. Then the plants are placed in an incubation cabinet at approximately 20° C. and a relative atmospheric humidity of 96%.

[4] = 100 ppm of active ingredient, listed as 1.110
[5] = 100 ppm of active ingredient, listed as 1.110 from WO-2009/153191

Row | Structure (SMILES) | Efficacy (Leptosphaeria nodorum; 500 ppm of active ingredient) | Efficacy [1] | Efficacy (Puccinia triticina) | Efficacy (Venturia inaequalis) | Efficacy (Sphaerotheca fuliginea) | Efficacy (Septoria tritici) | Efficacy [2] | logP [3] | Efficacy (Pyrenophora teres) | Efficacy (Alternaria solani; 500 ppm of active ingredient) | other results
1 | Cn1nc(C(F)F)c(C(=O)N2CCCC2Cc2cccc(Cl)c2)c1F (racemic) [Example 64] | 93% | 100% | 100% | 100% | 93% | 100% | 100% | 3.25 | 100% |  | 
2 | Cn1nc(C(F)F)c(C(=O)N2CCCC2Cc2ccc(Cl)cc2)c1F (racemic) [Example 65] | 100% | 100% |  | 100% | 95% | 100% | 100% | 3.29 | 100% | 94% | 
3 | Cn1nc(C(F)F)c(C(=O)N2CCCC2Cc2c(F)cccc2Cl)c1F (racemic) [Example 67] | 100% | 100% | 94% | 100% | 95% | 100% | 100% | 3.15 | 100% | 100% | 
4 | Cn1nc(C(F)F)c(C(=O)N2CCCC2Cc2c(Cl)cccc2Cl)c1F (racemic) [Example 76] |  | 100% |  |  | 95% | 83% | 100% | 3.31 | 100% |  | 
5 | Cn1cc(C(=O)N2CCC[C@H]2COc2c(Cl)cc(Cl)cc2Cl)c(C(F)F)n1 [Example 1.006 from WO-2009/153191, [3-(difluoromethyl)-1-methyl-1H-pyrazol-4-yl]{(S)-2-[(2,4,6-trichlorophenoxy)methyl]pyrrolidin-1-yl}methanone, reference compound] |  |  |  |  |  |  |  |  |  |  | Efficacy (Leptosphaeria nodorum; 250 ppm of active ingredient, listed as 1.006): less than 50%; Efficacy (Leptosphaeria nodorum; 250 ppm of active ingredient, listed as 1.006 from WO-2009/153191): 43%; Efficacy (Leptosphaeria nodorum; 500 ppm of active ingredient, listed as 1.006): at least 70%; Efficacy (Leptosphaeria nodorum; 500 ppm of active ingredient, listed as 1.006 from WO-2009/153191): 71%
6 | Cn1cc(C(=O)N2CCCC2Cc2c(Cl)cccc2Cl)c(C(F)F)n1 (stereo not shown) [Example 1.110 from WO-2009/153191, [2-(2,6-dichlorobenzyl)pyrrolidin-1-yl][3-(difluoromethyl)-1-methyl-1H-pyrazol-4-yl]methanone, reference compound] | 44% |  |  |  |  |  |  |  |  | 95% | Efficacy (Alternaria solani; [4]): less than 30%; Efficacy (Alternaria solani; [5]): 30%; Efficacy (Leptosphaeria nodorum; [4]): no protection; Efficacy (Leptosphaeria nodorum; [5]): 0%
7 | Cn1nc(C(F)F)c(C(=O)N2CCCC2c2cccc(C(F)(F)F)c2)c1Cl (stereo not shown) [Example 16] |  |  |  |  | 86% |  |  | 3.21 | 100% | 100% | 
8 | Cn1nc(C(F)F)c(C(=S)N2CCCC2c2cccc(C(F)(F)F)c2)c1F (stereo not shown) [Example 18] |  |  |  |  | 100% |  |  | 3.59 | 100% | 90% | 
9 | Cn1nc(C(F)F)c(C(=O)N2CCCC2c2ccc(C(F)(F)F)cc2)c1F (stereo not shown) [Example 21] |  |  |  |  | 81% |  |  | 3.13 | 95% | 90% | 
10 | Cn1nc(C(F)F)c(C(=O)N2CCCC2c2ccc(Cl)cc2Cl)c1F (stereo not shown) [Example 22] |  |  |  |  | 91% |  |  | 3.44 | 95% | 100% | 
11 | Cn1nc(C(F)F)c(C(=S)N2CCCC2c2ccc(Cl)cc2Cl)c1F (stereo not shown) [Example 24] |  |  |  |  | 95% |  |  | 4.09 | 100% | 90% | 
12 | Cn1nc(C(F)F)c(C(=O)N2CCCC2c2ccc(Cl)c(Cl)c2)c1F (stereo not shown) [Example 26] |  |  |  |  | 95% |  |  | 3.23 | 100% | 95% | 
13 | Cn1nc(C(F)F)c(C(=O)N2CCCC2c2cc(Cl)cc(Cl)c2)c1Cl (stereo not shown) [Example 27] |  |  |  |  | 70% |  |  | 3.50 | 95% | 95% | 
14 | Cn1nc(C(F)F)c(C(=O)N2CCCC2c2cc(Cl)cc(Cl)c2)c1F (stereo not shown) [Example 28] |  |  |  |  | 100% |  |  | 3.35 | 100% | 95% | 
15 | Cn1nc(C(F)F)c(C(=O)N2CCCC2c2ccccc2Br)c1F (stereo not shown) [Example 32] |  |  |  |  | 95% |  |  | 2.98 | 100% | 95% | 
16 | Cn1nc(C(F)F)c(C(=O)N2CCCC2c2cccc(Br)c2)c1F (stereo not shown) [Example 34] |  |  |  |  | 95% |  |  | 2.92 | 100% | 95% | 
17 | Cn1nc(C(F)F)c(C(=O)N2CCCC2c2cc(C(F)(F)F)cc(C(F)(F)F)c2)c1F (stereo not shown) [Example 39] |  |  |  |  | 100% |  |  | 3.63 | 100% | 95% | 
18 | Cn1nc(C(F)F)c(C(=O)N2CCCC2Cc2ccccc2)c1F (stereo not shown) [Example 52] | 100% | 100% | 89% | 100% |  | 100% | 100% | 2.84 | 100% | 100% | 
19 | Cc1ccccc1CC1CCCN1C(=O)c1c(C(F)F)nn(C)c1F (stereo not shown) [Example 54] | 100% | 100% | 100% | 100% | 95% | 100% | 100% | 3.13 | 95% | 94% | 
20 | Cc1cccc(CC2CCCN2C(=O)c2c(C(F)F)nn(C)c2F)c1 (stereo not shown) [Example 55, [3-(difluoromethyl)-5-fluoro-1-methyl-1H-pyrazol-4-yl][2-(3-methyl-benzyl)pyrrolidin-1-yl]methanone] | 100% | 100% | 100% | 100% | 95% | 100% | 100% |  | 100% |  | chromatographic logP [3]: 3.21
21 | Cc1ccc(CC2CCCN2C(=O)c2c(C(F)F)nn(C)c2F)cc1 (stereo not shown) [Example 56] | 93% | 100% | 89% | 98% | 81% | 100% | 100% | 3.23 | 100% | 94% | 
22 | Cn1nc(C(F)F)c(C(=O)N2CCCC2Cc2ccccc2F)c1F (stereo not shown) [Example 57] | 100% | 100% | 100% | 100% | 94% | 100% | 100% | 2.86 | 100% | 94% | 
23 | Cn1nc(C(F)F)c(C(=O)N2CCCC2Cc2cccc(F)c2)c1F (stereo not shown) [Example 58] | 100% | 100% | 100% | 99% | 96% | 100% | 100% | 2.90 | 100% | 89% | 
24 | Cn1nc(C(F)F)c(C(=O)N2CCCC2Cc2ccc(F)cc2)c1F (stereo not shown) [Example 59] | 93% | 100% | 88% |  | 93% | 90% | 100% | 2.90 | 100% |  | 
25 | Cn1nc(C(F)F)c(C(=O)N2CCCC2Cc2ccccc2Cl)c1F (stereo not shown) [Example 60] | 100% | 100% | 100% | 100% | 95% |  | 100% | 3.06 | 100% | 100% | 
